Assay results taken from patent US20080274892A1, “Novel Haloalkylsulfonanilide Derivative, Herbicide, and Method of Use Thereof” (priority 2005, published 2008).

What was measured:
false pimpernel [1] = experiment: Test Example 1: herbicidal efficacy on rice paddy weeds pre-emergence; format: in vivo, Lindernia pyxidaria; conditions: dosage 1000 g/ha, 21 days
false pimpernel [2] = experiment: Test Example 2: herbicidal efficacy on rice paddy weeds post-emergence; format: in vivo, Lindernia pyxidaria; conditions: dosage 1000 g/ha; post-emergence, one leaf stage; 21 days after treatment
bulrush [3] = experiment: as above; format: in vivo, Scirpus juncoides; conditions: dosage 1000 g/ha; post-emergence, one leaf stage; 21 days after treatment
[4] = test system: transplanted paddy rice plant and Bulrush; experiment: Test Example 5: selectivity between transplanted paddy rice plant and weeds; format: in vivo; conditions: (highest dosage with no phytotoxicity to paddy rice)/(lowest dosage with effective level 4 on Bulrush); rice 3000-100 g/ha, Bulrush 300-10 g/ha; 21 days
Procedure: (§1) The standard of judgment for herbicidal efficacy (degree of growth inhibition) and phytotoxicity 4 . . . 90%-100% of herbicidal efficacy or phytotoxicity 3 . . . 70%-89% of herbicidal efficacy or phytotoxicity 2 . . . 40%-69% of herbicidal efficacy or phytotoxicity 1 . . . 1%-39% of herbicidal efficacy or phytotoxicity 0 . . . 0% of herbicidal efficacy or phytotoxicity
Phytotoxicity test for transplanted paddy rice plants was carried out, as in Test Example 3, by the treatment of 3000, 1000, 300 and 100 (g/ha of the active ingredient) dosage, and herbicidal test to weed post-emergence was carried out to Burlush seeded as in Test Example 2 treating at 300, 100, 30 and 10 (g/ha) dosage. The pots were kept in a hot house for 21 days after the treatment, and the phytotoxicity and the herbicidal efficacy was investigated and evaluated according to the standard in Test Example 1 by comparing with the untreated control. […] Further, as a comparative compound, the compound No. 6-28 described in the JP-A-2004-107322 was used.

[5] = test system: paddy rice plant (cultivar: Nihonbare); experiment: Test Example 3: phytotoxicity test for transplanted paddy rice plant; format: in vivo; conditions: dosage 1000 g/ha; transplanted rice, treated 5 days after transplantation; 21 days after treatment
Summary of the method: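 Clay loam soil was placed in a 75 cm^2 plastic pot and flooded to a water depth of 5 cm. Two Nihonbare paddy rice plants at the two-leaf stage were transplanted 1 cm deep and grown in a hot house. After treatment, pots stayed in the hot house for 21 days, and phytotoxicity was then graded against an untreated control.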

barnyard glass = experiment: Test Example 2: herbicidal efficacy on rice paddy weeds post-emergence; format: in vivo, Echinochloa crus-galli; conditions: dosage 1000 g/ha; post-emergence, one leaf stage; 21 days after treatment
Summary of the method: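 Efficacy on paddy weeds was scored on a 0 to 4 growth-inhibition scale: 4 for 90%-100%, 3 for 70%-89%, 2 for 40%-69%, 1 for 1%-39% and 0 for 0%. Barnyard glass was grown in clay loam in 75 cm^2 pots under 5 cm of water in a hot house. It was compared with untreated pots 21 days after treatment.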

bulrush [6] = experiment: Test Example 4: low dosage test for rice paddy weeds; format: in vivo, Scirpus juncoides; conditions: 300 g/ha as an active ingredient; plants treated at the one leaf stage; 21 days after treatment; vs untreated control
Excerpt: as §1
A 75 cm^2 plastic pot was filled with soil (clay loam) and planted seeds of bulrush which is a rice paddy weed. After covering the top with 75 cm^3 soil, the pot was filled with water so that the soil submerged under 5 cm depth of water and kept in a hot house. The test plants, at the one leaf stage, were treated with the solution of a formulation containing the compound of the present invention as an active ingredient at the predetermined effective dosage (300 g/ha as an active ingredient). The pots were kept in a hot house for 21 days after the treatment and the herbicidal efficacy was investigated and evaluated according to the standard in Test Example 1 by comparing with the untreated control. Further, as a comparative compound, the compound No. 6-28 described in the JP-A-2004-107322 was used.

bulrush [7] = experiment: Test Example 1: herbicidal efficacy on rice paddy weeds pre-emergence; format: in vivo, Scirpus juncoides; conditions: dosage 1000 g/ha, 21 days

## CCC1(C)CN(Cc2ccccc2N(C(=O)OCC(C)(C)C)S(=O)(=O)C(F)(F)F)C(=O)O1 (racemic) [1-105]
False pimpernel [1]
  False pimpernel pre (herbicidal efficacy grade): 4 (90%-100% of herbicidal efficacy or phytotoxicity)
False pimpernel [2]
  False pimpernel post (herbicidal efficacy grade): 4 (90%-100% of herbicidal efficacy or phytotoxicity)
Bulrush [3]
  Bulrush post (herbicidal efficacy grade): 4 (90%-100% of herbicidal efficacy or phytotoxicity)
[4]
  Selective Index: 10
[5]
  Phytotoxicity to paddy rice: 1 (1%-39% of herbicidal efficacy or phytotoxicity)
Barnyard glass
  Burnyard grass post (herbicidal efficacy grade): 4 (90%-100% of herbicidal efficacy or phytotoxicity)
Bulrush [6]
  Herbicide effect to Bulrush: 4 (90%-100% of herbicidal efficacy or phytotoxicity)
Bulrush [7]
  Bulrush pre (herbicidal efficacy grade): 4 (90%-100% of herbicidal efficacy or phytotoxicity)

## CCC1(C)CN(Cc2ccccc2N(C(=O)OC)S(=O)(=O)C(F)(F)F)C(=O)O1 (racemic) [1-108]
False pimpernel [1]
  False pimpernel pre (herbicidal efficacy grade): 4 (90%-100% of herbicidal efficacy or phytotoxicity)
False pimpernel [2]
  False pimpernel post (herbicidal efficacy grade): 4 (90%-100% of herbicidal efficacy or phytotoxicity)
Bulrush [3]
  Bulrush post (herbicidal efficacy grade): 4 (90%-100% of herbicidal efficacy or phytotoxicity)
[4]
  Selective Index: 30
[5]
  Phytotoxicity to paddy rice: 2 (40%-69% of herbicidal efficacy or phytotoxicity)
Barnyard glass
  Burnyard grass post (herbicidal efficacy grade): 4 (90%-100% of herbicidal efficacy or phytotoxicity)
Bulrush [6]
  Herbicide effect to Bulrush: 4 (90%-100% of herbicidal efficacy or phytotoxicity)
Bulrush [7]
  Bulrush pre (herbicidal efficacy grade): 4 (90%-100% of herbicidal efficacy or phytotoxicity)

## COC(=O)N(c1ccccc1CN1CC(C)(C2CC2)OC1=O)S(=O)(=O)C(F)(F)F (racemic) [1-110]
False pimpernel [1]
  False pimpernel pre (herbicidal efficacy grade): 4 (90%-100% of herbicidal efficacy or phytotoxicity)
False pimpernel [2]
  False pimpernel post (herbicidal efficacy grade): 4 (90%-100% of herbicidal efficacy or phytotoxicity)
Bulrush [3]
  Bulrush post (herbicidal efficacy grade): 4 (90%-100% of herbicidal efficacy or phytotoxicity)
[4]
  Selective Index: ≧30
[5]
  Phytotoxicity to paddy rice: 2 (40%-69% of herbicidal efficacy or phytotoxicity)
Barnyard glass
  Burnyard grass post (herbicidal efficacy grade): 4 (90%-100% of herbicidal efficacy or phytotoxicity)
Bulrush [6]
  Herbicide effect to Bulrush: 4 (90%-100% of herbicidal efficacy or phytotoxicity)
Bulrush [7]
  Bulrush pre (herbicidal efficacy grade): 4 (90%-100% of herbicidal efficacy or phytotoxicity)

## CCOC(=O)N(c1ccccc1CN1CC(C)(C2CC2)OC1=O)S(=O)(=O)C(F)(F)F (racemic) [1-111]
False pimpernel [1]
  False pimpernel pre (herbicidal efficacy grade): 4 (90%-100% of herbicidal efficacy or phytotoxicity)
False pimpernel [2]
  False pimpernel post (herbicidal efficacy grade): 4 (90%-100% of herbicidal efficacy or phytotoxicity)
Bulrush [3]
  Bulrush post (herbicidal efficacy grade): 4 (90%-100% of herbicidal efficacy or phytotoxicity)
[4]
  Selective Index: ≧30
[5]
  Phytotoxicity to paddy rice: 2 (40%-69% of herbicidal efficacy or phytotoxicity)
Barnyard glass
  Burnyard grass post (herbicidal efficacy grade): 4 (90%-100% of herbicidal efficacy or phytotoxicity)
Bulrush [6]
  Herbicide effect to Bulrush: 4 (90%-100% of herbicidal efficacy or phytotoxicity)
Bulrush [7]
  Bulrush pre (herbicidal efficacy grade): 4 (90%-100% of herbicidal efficacy or phytotoxicity)

## CCCOC(=O)N(c1ccccc1CN1CC(C)(C2CC2)OC1=O)S(=O)(=O)C(F)(F)F (racemic) [1-112]
False pimpernel [1]
  False pimpernel pre (herbicidal efficacy grade): 4 (90%-100% of herbicidal efficacy or phytotoxicity)
False pimpernel [2]
  False pimpernel post (herbicidal efficacy grade): 4 (90%-100% of herbicidal efficacy or phytotoxicity)
Bulrush [3]
  Bulrush post (herbicidal efficacy grade): 4 (90%-100% of herbicidal efficacy or phytotoxicity)
[4]
  Selective Index: 30
[5]
  Phytotoxicity to paddy rice: 2 (40%-69% of herbicidal efficacy or phytotoxicity)
Barnyard glass
  Burnyard grass post (herbicidal efficacy grade): 4 (90%-100% of herbicidal efficacy or phytotoxicity)
Bulrush [6]
  Herbicide effect to Bulrush: 4 (90%-100% of herbicidal efficacy or phytotoxicity)
Bulrush [7]
  Bulrush pre (herbicidal efficacy grade): 4 (90%-100% of herbicidal efficacy or phytotoxicity)

## CCCCOC(=O)N(c1ccccc1CN1CC(C)(C2CC2)OC1=O)S(=O)(=O)C(F)(F)F (racemic) [1-113]
False pimpernel [1]
  False pimpernel pre (herbicidal efficacy grade): 4 (90%-100% of herbicidal efficacy or phytotoxicity)
False pimpernel [2]
  False pimpernel post (herbicidal efficacy grade): 4 (90%-100% of herbicidal efficacy or phytotoxicity)
Bulrush [3]
  Bulrush post (herbicidal efficacy grade): 4 (90%-100% of herbicidal efficacy or phytotoxicity)
[4]
  Selective Index: 30
[5]
  Phytotoxicity to paddy rice: 1 (1%-39% of herbicidal efficacy or phytotoxicity)
Barnyard glass
  Burnyard grass post (herbicidal efficacy grade): 4 (90%-100% of herbicidal efficacy or phytotoxicity)
Bulrush [6]
  Herbicide effect to Bulrush: 4 (90%-100% of herbicidal efficacy or phytotoxicity)
Bulrush [7]
  Bulrush pre (herbicidal efficacy grade): 4 (90%-100% of herbicidal efficacy or phytotoxicity)

## COC(=O)N(c1ccccc1CN1CC(C)(C(C)C)OC1=O)S(=O)(=O)C(F)(F)F (racemic) [1-114]
False pimpernel [1]
  False pimpernel pre (herbicidal efficacy grade): 4 (90%-100% of herbicidal efficacy or phytotoxicity)
False pimpernel [2]
  False pimpernel post (herbicidal efficacy grade): 4 (90%-100% of herbicidal efficacy or phytotoxicity)
Bulrush [3]
  Bulrush post (herbicidal efficacy grade): 4 (90%-100% of herbicidal efficacy or phytotoxicity)
[4]
  Selective Index: 30
[5]
  Phytotoxicity to paddy rice: 2 (40%-69% of herbicidal efficacy or phytotoxicity)
Barnyard glass
  Burnyard grass post (herbicidal efficacy grade): 4 (90%-100% of herbicidal efficacy or phytotoxicity)
Bulrush [6]
  Herbicide effect to Bulrush: 4 (90%-100% of herbicidal efficacy or phytotoxicity)
Bulrush [7]
  Bulrush pre (herbicidal efficacy grade): 4 (90%-100% of herbicidal efficacy or phytotoxicity)

## CCOC(=O)N(c1ccccc1CN1CC(C)(C(C)C)OC1=O)S(=O)(=O)C(F)(F)F (racemic) [1-115]
False pimpernel [1]
  False pimpernel pre (herbicidal efficacy grade): 4 (90%-100% of herbicidal efficacy or phytotoxicity)
False pimpernel [2]
  False pimpernel post (herbicidal efficacy grade): 4 (90%-100% of herbicidal efficacy or phytotoxicity)
Bulrush [3]
  Bulrush post (herbicidal efficacy grade): 4 (90%-100% of herbicidal efficacy or phytotoxicity)
[4]
  Selective Index: 10
[5]
  Phytotoxicity to paddy rice: 3 (70%-89% of herbicidal efficacy or phytotoxicity)
Barnyard glass
  Burnyard grass post (herbicidal efficacy grade): 4 (90%-100% of herbicidal efficacy or phytotoxicity)
Bulrush [6]
  Herbicide effect to Bulrush: 4 (90%-100% of herbicidal efficacy or phytotoxicity)
Bulrush [7]
  Bulrush pre (herbicidal efficacy grade): 4 (90%-100% of herbicidal efficacy or phytotoxicity)

## CCCOC(=O)N(c1ccccc1CN1CC(C)(C(C)C)OC1=O)S(=O)(=O)C(F)(F)F (racemic) [1-116]
False pimpernel [1]
  False pimpernel pre (herbicidal efficacy grade): 4 (90%-100% of herbicidal efficacy or phytotoxicity)
False pimpernel [2]
  False pimpernel post (herbicidal efficacy grade): 4 (90%-100% of herbicidal efficacy or phytotoxicity)
Bulrush [3]
  Bulrush post (herbicidal efficacy grade): 4 (90%-100% of herbicidal efficacy or phytotoxicity)
[4]
  Selective Index: 10
[5]
  Phytotoxicity to paddy rice: 1 (1%-39% of herbicidal efficacy or phytotoxicity)
Barnyard glass
  Burnyard grass post (herbicidal efficacy grade): 4 (90%-100% of herbicidal efficacy or phytotoxicity)
Bulrush [6]
  Herbicide effect to Bulrush: 4 (90%-100% of herbicidal efficacy or phytotoxicity)
Bulrush [7]
  Bulrush pre (herbicidal efficacy grade): 4 (90%-100% of herbicidal efficacy or phytotoxicity)

## CCCCOC(=O)N(c1ccccc1CN1CC(C)(C(C)C)OC1=O)S(=O)(=O)C(F)(F)F (racemic) [1-117]
False pimpernel [1]
  False pimpernel pre (herbicidal efficacy grade): 4 (90%-100% of herbicidal efficacy or phytotoxicity)
False pimpernel [2]
  False pimpernel post (herbicidal efficacy grade): 4 (90%-100% of herbicidal efficacy or phytotoxicity)
Bulrush [3]
  Bulrush post (herbicidal efficacy grade): 4 (90%-100% of herbicidal efficacy or phytotoxicity)
[4]
  Selective Index: 10
[5]
  Phytotoxicity to paddy rice: 2 (40%-69% of herbicidal efficacy or phytotoxicity)
Barnyard glass
  Burnyard grass post (herbicidal efficacy grade): 4 (90%-100% of herbicidal efficacy or phytotoxicity)
Bulrush [6]
  Herbicide effect to Bulrush: 4 (90%-100% of herbicidal efficacy or phytotoxicity)
Bulrush [7]
  Bulrush pre (herbicidal efficacy grade): 4 (90%-100% of herbicidal efficacy or phytotoxicity)
